Laboratory results published in patent US9475841B2, “Melanoma antigen peptide and uses thereof” (INSERM (INSTITUT NATIONAL DE LA SANTE ET DE LA RECHERCHE …, priority 2012, dated 2016).

Legend:
Experiment in all cases: Cytokine profile of CD4 T cell clone stimulated with cognate peptide (intracellular staining)
Format in all cases: cell-based, human
Conditions in all cases: cognate peptide 10 μM, 5 hours
[1] = test system: CD4 T cell clone 9C12-DQβ*0202
Procedure: (§1) Lymphocytes were stimulated for 5 hours in the presence of brefeldin A (10 μg/mL) either with peptide alone (10 μM) in an autopresentation assay or with B-EBV or HLA-class II expressing melanoma cells pulsed 2 hours with the cognate peptide, at a ratio 1:2. In some experiments, blocking mAb against HLA-DP (clone B7.21 from Dr Charron, UMR940, Paris), HLA-DQ (clone SPVL3, Beckman Coulter) or HLA-DR (clone L243, BD Biosciences) were added at a concentration of 12.5 μg/ml. Cells were then stained with APC-conjugated anti-CD4 mAb, fixed with 4% paraformaldehyde, labeled with PE-conjugated anti-cytokine mAb and analyzed by flow cytometry.
(§2) We also documented the T helper profile of each T cell clone, by stimulating the CD4 T cell clones with the cognate peptide, and analyzing cytokine production. All the clones expressed Th1 cytokines (TNFα, IFNγ, IL2 and GM-CSF). On the contrary, these clones differ in their expression of Th2 cytokines. Indeed, the two DQ2 restricted T cell clones (9C12 and 4E2) and the DR1 restricted one (5F9) also strongly express two Th2 cytokines (IL4, and IL13), whereas the DR11-restricted T cell clone only weakly expressed IL4 (Table IV). None of the CD4 T cell expresses IL10 or IL5 at a significant level.

[2] = test system: CD4 T cell clone 5F9-DRβ1*0101
Procedure: as §1, §2

[3] = test system: CD4 T cell clone 1A5-DRβ1*1101
Procedure: as §1, §2

Sequence: SCVGYPDEATSREQFLPSEG (SCVGYPDEATSREQFLPSEC) [MELOE-12-21]
- Cytokine profile: GM-CSF [1]: GM-CSF^high
- Cytokine profile: IFN [1]: IFN^high
- Cytokine profile: IL2 [1]: IL2^high
- Cytokine profile: IL4 [1]: IL4^high
- Cytokine profile: IL5 [1]: IL5^high
- Cytokine profile: IL10 [1]: IL10^neg
- Cytokine profile: IL13 [1]: IL13^high
- Cytokine profile: TNF [1]: TNF^high

Sequence: TSREQFLPSEGAACPPWHPS [MELOE-111-30]
- Cytokine profile: GM-CSF [2]: GM-CSF^high
- Cytokine profile: IFN [2]: IFN^high
- Cytokine profile: IL2 [2]: IL2^low
- Cytokine profile: IL4 [2]: IL4^high
- Cytokine profile: IL5 [2]: IL5^neg
- Cytokine profile: IL10 [2]: IL10^neg
- Cytokine profile: IL13 [2]: IL13^high
- Cytokine profile: TNF [2]: TNF^high
- Cytokine profile: GM-CSF [3]: GM-CSF^high
- Cytokine profile: IFN [3]: IFN^high
- Cytokine profile: IL2 [3]: IL2^high
- Cytokine profile: IL4 [3]: IL4^low
- Cytokine profile: IL5 [3]: IL5^neg
- Cytokine profile: IL10 [3]: IL10^neg
- Cytokine profile: IL13 [3]: IL13^neg
- Cytokine profile: TNF [3]: TNF^high
